Values quoted from earlier work, collected in US10654860B2, “Tricyclic rho kinase inhibitors” (BRISTOL-MYERS SQUIBB COMPANY, priority 2016, dated 2020).
Read-outs that look alike come from different tables or passages of the source.

Assays:
[1] = test system: spontaneously hypertensive rat, renal hypertensive rat and deoxycortisone acetate salt hypertensive rat models; settings: cited from earlier work
[2] = test system: neointimal formation; settings: rats, balloon injury model; cited from earlier work
[3] = test system: congestive heart failure in Dahl salt-sensitive rats; settings: cited from earlier work
[4] = test system: IL-1 beta-induced coronary stenosis; settings: long term treatment, porcine model; cited from earlier work
[5] = test system: rat stroke model; settings: cited from earlier work

SMILES | blood pressure ([1]; control rats) | blood pressure ([1]; three rat models of hypertension) | neointimal formation [2] | ventricular hypertrophy, fibrosis and function [3] | coronary constrictive remodeling [4] | coronary stenosis [4] | infarct size [5] | neurologic deficit [5]
C[C@@H](N)[C@H]1CC[C@H](C(=O)Nc2ccncc2)CC1 [Example Y-27632, Y-27632] | only a minor effect | significantly decrease | inhibited | improve | – | – | – | –
O=S(=O)(c1cccc2cnccc12)N1CCCNCC1 [fasudil] | – | – | – | – | promote a regression | progressively reduce | reduce | reduce
